Source: patent US9212146B2, “Substituted pyridazinones for the treatment of tumors” (SHANGHAI INSTITUTE OF MATERIA MEDICA, CHINESE ACADEMY OF …, priority 2008, dated 2015)

Experiments:
[1] = tested on: QSG-7701 liver cancer cells; experiment: SRB assay Example 17, QSG-7701; format: cell-based; settings: Homo sapiens, QSG7701, 72 h
Protocol: (§1) Protocol: the antineoplasmic activities in vitro of the compounds were assayed by a Sulforhodamine B (SRB) protocol. Tumor cells were cultivated at 37 under 5% CO2 in a RPMI 1640 medium or a DMEM medium (Gibco) containing 10% fetal bovine serum. Tumor cells were inoculated on a 96-well plate with a concentration of 0.4-1.0×10^4 cells per well according to the cell types. 24 hours later, the target compounds diluted 3 times were added, each compound having at least 9 concentrations. After treated by the compounds for 72 hours, the culture media were discarded, and the cells were fixed by 10% cold trichloroacetic acid, and then stained by Sulforhodamine B (SRB) solution. The uncombined SRB was washed off, and the SRB combined with protein was dissolved with Tris. OD values were recorded at 515 nm on an ELISA Reader, and the cell growth inhibition rate was calculated according to following equation: Inhibition rate=(ODcontrol−ODexperimental)/ODcontrol×100%
(§2) IC50 (50% inhibitory concentration) was calculated by using Logit method based on the inhibition rates at various concentration, and the results are shown in table 4.
(§3) Proliferation of turner cells was assayed by SRB protocol, drug action 72 h.

[2] = tested on: A2780 ovarian cancer cells; experiment: SRB assay Example 17, A2780; format: cell-based; settings: Homo sapiens, 72 h
Protocol: as §1, §2, §3

[3] = tested on: QGY-7703 liver cancer cells; experiment: SRB assay Example 17, QGY-7703; format: cell-based; settings: Homo sapiens, 72 h
Protocol: as §1, §2, §3

[4] = tested on: HUVEC normal human umbilical vein endothelial cells; experiment: SRB assay Example 17, HUVEC (20% FBS); format: cell-based; settings: 72 h
Protocol: as §1, §2, §3

[5] = tested on: QGY-7701 liver cancer cells; experiment: SRB assay Example 17, QGY-7701; format: cell-based; settings: Homo sapiens, QGY7701, 72 h
Protocol: as §1, §2, §3

[6] = tested on: CNE nasopharyngeal carcinoma cells; experiment: SRB assay Example 17, CNE; format: cell-based; settings: Homo sapiens, 72 h
Protocol: as §1, §2, §3

[7] = tested on: H460 lung cancer cells; experiment: SRB assay Example 17, H460; format: cell-based; settings: Homo sapiens, NCI-H460, 72 h
Protocol: as §1, §2, §3

[8] = tested on: A549 lung cancer cells; experiment: SRB assay Example 17, A549; format: cell-based; settings: Homo sapiens, 72 h
Protocol: as §1, §2, §3

[9] = tested on: HL-7702 liver cell; experiment: SRB assay Example 17, HL-7702; format: cell-based; settings: Homo sapiens, L02, 72 h
Protocol: as §1, §2, §3

[10] = tested on: MCF-7 breast carcinoma cells; experiment: SRB assay Example 17, MCF-7; format: cell-based; settings: Homo sapiens, MCF7, 72 h
Protocol: as §1, §2, §3

[11] = tested on: Bel-7402 liver cancer cells; experiment: SRB assay Example 17, Bel-7402; format: cell-based; settings: Homo sapiens, drug action 72 h
Protocol: as §1, §2, §3

[12] = tested on: Hep3B liver cancer cells; experiment: SRB assay Example 17, Hep3B; format: cell-based; settings: Homo sapiens, 72 h
Protocol: as §1, §2, §3

[13] = tested on: HeLa cervical carcinoma cells; experiment: SRB assay Example 17, HeLa; format: cell-based; settings: Homo sapiens, 72 h
Protocol: as §1, §2, §3

[14] = tested on: Bel-7404 liver cancer cells; experiment: SRB assay Example 17, Bel-7404; format: cell-based; settings: Homo sapiens, 72 h
Protocol: as §1, §2, §3

[15] = tested on: SK-HEP-1 liver cancer cells; experiment: SRB assay Example 17, SK-HEP-1; format: cell-based; settings: Homo sapiens, SK-HEP1, 72 h
Protocol: as §1, §2, §3

[16] = tested on: human liver cancer cells Bel-7402 transplanted tumor; format: in vivo; settings: for Quantity of Animals Whose Tumors Vanished / Inhibition Rate (%) / Tumor Volume (mm^3): 100 mg/kg, PO, QDx11; for Quantity of Animals Whose Tumors Vanished: 5 animals per group; for Inhibition Rate (%) / Tumor Volume (mm^3): Bel-7402 on nude mice; for tumors vanished (animals/group): at the 11th day; for tumors vanished (animals/group) / toxicity / survivability of mice: intragastrically once a day for 11 days; for recrudescence of tumors: at the end of the experiment (17th day); for toxicity / survivability of mice: nude mice
From the text: Name and lot number: YHHU-744, a white powder, lot No.: No. c001471-106; YHHU-755, a white powder, lot No.: No. c001471-102; YHHU-756, a white powder, lot No.: No. c00147-106; YHHU-759, a white powder, lot No.: No. c001471-102; YHHU-776, a white powder, lot No.: No. c001471-107. Sorafenib was used as a positive control.
Formulation: YHHU-744, YHHU-755, YHHU-756, YHHU-759, YHHU-776 and the positive control were each diluted with 0.1% Tween-80 and distilled water to a desired concentration.
BALB/cA nude mice, 6-7 weeks old, ♀, were purchased from Shanghai SLAC Laboratory Animal Co. LTD. Certificate No.: SCXK (Shanghai) 2007-0005. Habitat: SPF level.
Human liver cancer cells Bel-7402 were inoculated on nude mice subcutaneously. After the tumor grew up to 300-450 mm^3, animals were grouped randomly (d0). The tumor volume was measured 2-3 times each week and the weights of mice were recorded. The tumor volume was calculated according to as the following equation. V=½×a×b^2 wherein, a and b are length and width, respectively. […]

[17] = tested on: HUH-7 liver cancer cells; experiment: SRB assay Example 17, HUH-7; format: cell-based; settings: Homo sapiens, 72 h
Protocol: as §1, §2, §3

[18] = tested on: HCCC-9810 liver cancer cells; experiment: SRB assay Example 17, HCCC-9810; format: cell-based; settings: Homo sapiens, HCCC9810, 72 h
Protocol: as §1, §2, §3

[19] = tested on: Chang liver liver cell; experiment: SRB assay Example 17, Chang liver; format: cell-based; settings: Homo sapiens, 72 h
Protocol: as §1, §2, §3

[20] = tested on: human hepatoma cell line Bel-7402; experiment: SRB proliferation assay, Bel-7402; format: cell-based; settings: Homo sapiens, Bel-7402, 72 h, BEL-7402 cultivated in vitro, given as bounds, read-out: The Inhibition Activities for Human Liver Cancer Cells BEL-7402 (IC50)
Protocol: as §1, with “diluted 10” for “diluted 3”, “least 5” for “least 9”
IC50 (50% inhibitory concentration) was calculated by using Logit method based on the inhibition rates at various concentration, and the results are shown in tables 1 and 2.
The following cell lines were used: human hepatocarcinoma cell line […]; ovarian cancer cell line SK-OV-3; human breast cancer cell line MDA-MB-231; human renal carcinoma cell line A498; colon adenocarcinoma cell line HT-29; non-small cell lung cancer cell line NCI-H460; lung adenocarcinoma cell line A549; human colon cancer cell line SW-620; human hepatoma cell line Bel-7402; human breast carcinoma cell line SK-BR-3; and human umbilical vein endothelial cells (HUVEC).

[21] = tested on: HepG2 liver cancer cells; experiment: SRB assay Example 17, HepG2; format: cell-based; settings: Homo sapiens, 72 h
Protocol: as §1, §2, §3

[22] = tested on: 3AO ovarian cancer cells; experiment: SRB assay Example 17, 3AO; format: cell-based; settings: Homo sapiens, 72 h
Protocol: as §1, §2, §3

[23] = tested on: SMMC-7721 liver cancer cells; experiment: SRB assay Example 17, SMMC-7721; format: cell-based; settings: Homo sapiens, 72 h
Protocol: as §1, §2, §3

[24] = tested on: human liver cancer cells SMMC-7721 transplanted tumor; experiment: SMMC-7721 transplanted tumor on nude mice; format: in vivo; settings: intragastrically once a day for 10 days; for growth of SMMC-7721 transplanted tumor: subcutaneous tumor on nude mice
Protocol: Experimental procedure: BALB/cA nude mice, 6-7 weeks old, ♀, were purchased from Shanghai SLAC Laboratory Animal Co. LTD. Certificate No.: SCXK (Shanghai) 2007-0005. Habitat: SPF level. The compounds were diluted with 0.5% CMC containing 0.1% Tween-80 to a desired concentration. Human liver cancer cells SMMC-7721 were inoculated on nude mice subcutaneously. After the tumor grew up to 100-200 mm^3, animals were grouped randomly (d0). Mice were consecutively administered with compounds intragastrically once a day for 10 days. The tumor volume was measured 2-3 times each week and the weights of mice were recorded. The tumor volume (V) was calculated according to the following equation: V=½×a×b^2, wherein, a and b are length and width, respectively.

[25] = tested on: SK-BR-3 breast carcinoma cells; experiment: SRB assay Example 17, SK-BR-3; format: cell-based; settings: Homo sapiens, 72 h
Protocol: as §1, §2, §3

`CN1CCN(c2ccc(-c3ccc(=O)[nH]n3)cc2C(F)(F)F)CC1` [YHHU-756] showed an IC50 [1] of 20 nM, an IC50 [2] of 30 nM and an IC50 [3] of 20 nM. The IC50 [4] was 50 nM, the IC50 [5] was 20 nM and the IC50 [6] was 10 nM. The IC50 [7] was 12900 nM, the IC50 [8] was 13200 nM and the IC50 [9] was 30 nM. It also gave an IC50 [10] of 12100 nM, an IC50 [11] of 20 nM and an IC50 [12] of over 10000 nM. For the same molecule, the IC50 [13] was 20 nM, the IC50 [14] was 410 nM and the IC50 [15] was over 10000 nM. The “Quantity of Animals Whose Tumors Vanished” value [16] was 5, the “Inhibition Rate (%)” value [16] was 100% and the “Tumor Volume (mm^3)” value [16] was 294.6 mm^3. The “tumors vanished (animals/group)” value [16] was 5/5, the recrudescence of tumors [16] was “no recrudescence was observed” and the “toxicity / survivability of mice” value [16] was “no significant toxicity was observed”. For the same molecule, the IC50 [17] was over 10000 nM, the IC50 [18] was over 10000 nM and the IC50 [19] was 20 nM. For the same molecule, the IC50 [20] was under 10 nM, the IC50 [21] was over 10000 nM and the IC50 [22] was 20 nM. For the same molecule, the IC50 [23] was 10 nM, the “survivability / weight loss of mice bearing cancer” value [24] was “no symptoms such as weight loss was observed” and the “growth of SMMC-7721 transplanted tumor” value [24] was “caused part of the tumors vanished”. It also gave an IC50 [25] of 7100 nM.

For `O=c1ccc(-c2ccc(N3CCOCC3)c(C(F)(F)F)c2)n[nH]1` [YHHU-759], the “Quantity of Animals Whose Tumors Vanished” value [16] was 5, the “Inhibition Rate (%)” value [16] was 100% and the “Tumor Volume (mm^3)” value [16] was 367.9 mm^3. For the same molecule, the “tumors vanished (animals/group)” value [16] was 5/5, the recrudescence of tumors [16] was “no recrudescence was observed” and the “toxicity / survivability of mice” value [16] was “no significant toxicity was observed”. For the same molecule, the IC50 [20] was under 10 nM and the “growth of SMMC-7721 transplanted tumor” value [24] was “significantly inhibited the growth”.
